Results as given in PMC10479830, “Nucleoside analogs NM107 and AT-527 are antiviral against rubella virus” (PNAS Nexus, 2023).
pIC50: −log10 of the molar value. Like-named read-outs stand apart in the source and are kept apart here.

Columns and labels:
rubella RA27/3 virus = assay: microbe, parasite or virus in culture; format: cell-based; details: for inhibition at 1 µM: A549, read-out: inhibition of infection in primary screen
Source text: (§1) We developed a high-throughput, high-content, cell-based assay to monitor rubella virus infection of the human respiratory cell line A549, as the respiratory tract is infected in humans. […] We infected A549 cells with the rubella virus vaccine strain (RA27/3) and monitored infection using an antibody to the viral glycoprotein E1 (Fig. 1A) ([13]). […] To evaluate the utility of nanchangmycin as a positive control for our assay development, we performed a dose–response assay for nanchangmycin using automated fluorescent microscopy to quantify the cell number as a surrogate for cell viability and percent infection (Fig. 1A).
A549 cells were plated in 384 well plates at 3,000 cells/well, HBMEC were plated at 7,000 cells/well, or Jeg-3 cells were plated at 3,000 cells/well in 20 μL growth media. The next day, 50 nL of drugs were added to assay wells, yielding a final concentration of 1 µM. The positive control nanchangmycin (n = 32) and the negative control DMSO (n = 32) were spotted on each assay plate. […] HBMECs were spin-infected by centrifuging at 1,250×g for 1 h at 25°C. Cells were fixed at 48 h post infection (hpi) in 4% formaldehyde/phosphate-buffered saline (PBS) for 15 min at room temperature and then washed twice with PBS. Cells were blocked with blocking buffer [2% bovine serum albumin in PBS with 0.1% Triton X-100 (PBST)]) for 1 h and incubated with primary antibody (mouse antirubella E1, CDC, 1 μg/mL) overnight at 4°C. […] Cells were washed three times with PBST and imaged using ImageXpress Micro (Molecular Devices). Cells were imaged with a 10× objective capturing four sites per well. The total number of cells and the percentage of infected cells were measured using the MetaXpress 5.3.3 cell scoring module. The aggregated percent infection of the DMSO and 2 µM nanchangmycin control wells on each assay plate were used to calculate Z′-factors. Sample well infection was normalized to aggregated DMSO plate control wells and expressed as percentage of control (POC = [%Infection sample/Average %Infection DMSO] × 100) and Z-score (Z = [%Infection sample − Average %Infection DMSO]/Standard Deviation %Infection DMSO) in Spotfire (PerkinElmer). Candidate hits were selected as compounds with POC <40% and viability >60%, compared with vehicle control.
(§2) Drugs were purchased as powders from Selleckchem, MedchemExpress, and MedKoo and suspended in DMSO. Drugs were arrayed in 8-pt dose–response in 384 well plates. Infections were performed using the screening conditions. DMSO (n = 32) and 2 µM nanchangmycin (n = 16) were included on each validation plate as controls for normalization. Infection at each drug concentration was normalized to aggregated DMSO plate control wells and expressed as POC (POC = %Infection sample/Average %Infection DMSO cont). A nonlinear regression curve fit analysis (GraphPad Prism 8) was performed on POC infection and cell viability using log10 transformed concentration values to calculate IC50 values for infection and CC50 values for cell viability. SI was calculated as a ratio of the drug's CC50 and IC50 values (SI = CC50/IC50).

[1] = cell number (cell viability) in A549 cells, Hoechst 33342, automated microscopy; format: cell-based, human; details: human, A549 cells; for viability at 48 h, 1 µM: compared with vehicle alone, read-out: cell viability in primary screen
Source text: as §1
(§3) A549 cells were plated in 384 well plates at 3,000 cells/well, HBMEC were plated at 7,000 cells/well, or Jeg-3 cells were plated at 3,000 cells/well in 20 μL growth media. The next day, 50 nL of drugs were added to assay wells, yielding a final concentration of 1 µM. The positive control nanchangmycin (n = 32) and the negative control DMSO (n = 32) were spotted on each assay plate. One hour later, cells were infected with rubella virus at a multiplicity of infection (MOI) = 0.234 for A549s, MOI = 0.1 for HBMEC, MOI = 0.05 for Jeg-3 cells). […] HBMECs were spin-infected by centrifuging at 1,250×g for 1 h at 25°C. Cells were fixed at 48 h post infection (hpi) in 4% formaldehyde/phosphate-buffered saline (PBS) for 15 min at room temperature and then washed twice with PBS. Cells were blocked with blocking buffer [2% bovine serum albumin in PBS with 0.1% Triton X-100 (PBST)]) for 1 h and incubated with primary antibody (mouse antirubella E1, CDC, 1 μg/mL) overnight at 4°C. Cells were washed three times with PBST and incubated in secondary (1:1000 antimouse Alexa Fluor 488 and 5 μg/mL Hoechst 33342) for 1 h at room temperature. Cells were washed three times with PBST and imaged using ImageXpress Micro (Molecular Devices). Cells were imaged with a 10× objective capturing four sites per well. The total number of cells and the percentage of infected cells were measured using the MetaXpress 5.3.3 cell scoring module. The aggregated percent infection of the DMSO and 2 µM nanchangmycin control wells on each assay plate were used to calculate Z′-factors. Sample well infection was normalized to aggregated DMSO plate control wells and expressed as percentage of control (POC = [%Infection sample/Average %Infection DMSO] × 100) and Z-score (Z = [%Infection sample − Average %Infection DMSO]/Standard Deviation %Infection DMSO) in Spotfire (PerkinElmer). Candidate hits were selected as compounds with POC <40% and viability >60%, compared with vehicle control.
as §2

rubella virus [2] = assay: rubella virus infection of HBMEC, dose-response; format: cell-based; details: for activity against rubella in HBMEC: dose-response
Method: Rubella virus can infect diverse tissues in vivo, and viruses can show tissue-specific dependencies on host factors. […] First, we developed assays in human brain microvascular endothelial cells (HBMECs) as a model for endothelial cells. We again used nanchangmycin to optimize the assay (Fig. 3A and B).
as §3, §2

[3] = cell number (cell viability) in HBMEC; format: cell-based; details: human, HBMEC (infected with rubella virus)
Method: A549 cells were plated in 384 well plates at 3,000 cells/well, HBMEC were plated at 7,000 cells/well, or Jeg-3 cells were plated at 3,000 cells/well in 20 μL growth media. The next day, 50 nL of drugs were added to assay wells, yielding a final concentration of 1 µM. The positive control nanchangmycin (n = 32) and the negative control DMSO (n = 32) were spotted on each assay plate. One hour later, cells were infected with rubella virus at a multiplicity of infection (MOI) = 0.234 for A549s, MOI = 0.1 for HBMEC, MOI = 0.05 for Jeg-3 cells). […] HBMECs were spin-infected by centrifuging at 1,250×g for 1 h at 25°C. […] The total number of cells and the percentage of infected cells were measured using the MetaXpress 5.3.3 cell scoring module. […] Sample well infection was normalized to aggregated DMSO plate control wells and expressed as percentage of control (POC = [%Infection sample/Average %Infection DMSO] × 100) and Z-score (Z = [%Infection sample − Average %Infection DMSO]/Standard Deviation %Infection DMSO) in Spotfire (PerkinElmer). […]
(§4) Drugs were purchased as powders from Selleckchem, MedchemExpress, and MedKoo and suspended in DMSO. […] Infection at each drug concentration was normalized to aggregated DMSO plate control wells and expressed as POC (POC = %Infection sample/Average %Infection DMSO cont). […] SI was calculated as a ratio of the drug's CC50 and IC50 values (SI = CC50/IC50).

rubella virus [4] = assay: rubella virus infection of Jeg-3 cells, dose-response; format: cell-based; details: Jeg-3 cells; for activity against rubella in Jeg-3 cells: dose-response
Method: Since rubella can cause congenital infections, we next developed assays in the human trophoblast cell line Jeg-3.
as §3, §2

[5] = cell number (cell viability) in Jeg-3 cells; format: cell-based, human; details: human, Jeg-3 cells (infected with rubella virus)
Method: as §3, with “The aggregated percent infection of the DMSO and 2 µM nanchangmycin control wells on each assay plate were used to calculate Z′-factors.” left out, “Candidate hits were selected as compounds with POC <40% and viability >60%, compared with vehicle control.” left out
as §4

rubella virus [6] = assay: qRT-PCR of viral RNA in infected A549 cells; format: cell-based; details: 10 µM, 48 h, vs vehicle
Method: (§5) We next performed orthogonal assays to determine the magnitude of the inhibition of rubella infection upon treatment with either NM107 or AT-527. […] We also determined if these nucleoside analogs impacted virus production.
(§6) A549 cells were plated in 6-well plates at 5 × 10^5 cells/well, HBMEC were plated at 6 × 10^5 cells/well, or Jeg-3 cells were plated at 5 × 10^5 cells/well. Twenty-four hours later, vehicle or drugs were added at the indicated concentrations. One hour later, cells were infected with rubella virus (MOI = 0.17 for A549s, MOI = 0.07 for HBMEC, MOI = 0.05 for Jeg-3 cells) and HBMEC were spin-infected by centrifuging at 1,250×g for 1 h at 25°C. […] At 48 hpi, total RNA was purified using Trizol (Invitrogen) followed by the RNA Clean and Concentrate kit (Zymo Research). cDNA synthesis was performed with random hexamers and Moloney murine leukemia virus reverse transcriptase (Invitrogen). Gene-specific primers to rubella RA27/3 NSP and GAPDH were used (Table S4). […] Relative quantities of viral and cellular RNA were calculated using a relative standard curve method where quantification was performed with respect to a 5-point standard curve generated from serial dilutions of a pooled reference generated by combining each sample cDNA for the experiment. […]

rubella virus [7] = assay: viral titers of A549 supernatants, TCID50 assay; format: cell-based; details: A549 cells, 10 µM, 48 hpi, at the limit of detection
Method: (§7) A549 or Jeg-3 cells were plated, treated, and infected as for the qRT–PCR experiments. At 4 hpi, cells were washed twice with DPBS (Invitrogen) to remove any nonadsorbed virus and 2 mL of appropriate culture medium treated with vehicle or drug was added. At 48 hpi, cell supernatants were collected and titered by TCID50 assay.
(§8) A549 cells were plated in 96 well plates at 25,000 cells/well and incubated overnight before inoculating with two-fold serial dilutions of viral stock or virus-containing supernatant to determine viral titer. At 24 hpi, plates were processed for microscopy and imaged as above. Titers were calculated using the Reed–Muench method ([26]).

rubella virus [8] = assay: qRT-PCR of viral RNA in infected Jeg-3 cells; format: cell-based; details: 10 μM, 48 h, vs vehicle
Method: as §5, §6

rubella virus [9] = assay: viral titers of Jeg-3 supernatants, TCID50 assay; format: cell-based; details: Jeg-3 cells, 10 μM, 48 hpi, below the limit of detection
Method: as §7, §8

[10] = parameters: method as in PMID 16248033; details: cited from earlier work
A549 cells [11] = assay: ATPLite assay of cytotoxicity in A549 cells; format: cell-based, human
Source text: To determine whether LY2090314 is targeting GSK-3 or potentially a different target, we tested two additional GSK-3 inhibitors, AZD2858 and CHIR99021. […] We also validated the PIKfyve inhibitor APY0201, known to block entry of viruses that use endosomal entry routes and found robust activity (SI = 102). […] All three of the NAMPT inhibitors identified in the screen (STF-118804, GMX1778, and daporinad) validated with high potency (SI > 500).

A549 cells [12] = assay: cell number (cell viability) in A549 cells, Hoechst 33342, automated microscopy; format: cell-based, human; details: 1 µM
Source text: as §1, §3, §2

Q: With `C[C@@]1(O)[C@H](O)[C@@H](CO)O[C@H]1n1ccc(N)nc1=O` [NM107, 2′-C-methylcytidine] as the compound, how does the “selectivity index (SI = CC50/IC50)” value (rubella RA27/3 virus; A549 cells) read?
A: > 817

Q: And the pIC50 (rubella RA27/3 virus; Rubella virus, A549, read-out: IC50, rubella virus infection)?
A: 7.70

Q: And the CC50 at 48 h ([1]; A549 cells (infected with rubella virus RA27/3), cell number, read-out: half-maximal cytotoxicity concentration (CC50))?
A: > 20000 nM

Q: And the pIC50 (rubella virus [2]; Rubella virus)?
A: > 8.00

Q: What about the CC50 at 48 h [3] of the same compound?
A: > 20000 nM

Q: What about the pIC50 (rubella virus [4]; Rubella virus, read-out: IC50, rubella virus infection) of the same compound?
A: 6.22

Q: What about the CC50 at 48 h [5] of the same compound?
A: > 20000 nM

Q: What about the “reduction in viral replication as measured by qRT-PCR” value (rubella virus [6]) of the same compound?
A: > 100 fold

Q: What about the “reduction of viral titers” value (rubella virus [7]) of the same compound?
A: ~100,000 fold

Q: And the “reduction in viral RNA by qRT-PCR” value (rubella virus [8])?
A: > 100 fold

Q: And the “reduction of viral titers” value (rubella virus [9])?
A: ~10,000 fold

Q: And the bioavailability [10]?
A: low bioavailability

Q: With `N#CN=C(NCCCCCCOc1ccc(Cl)cc1)Nc1ccncc1` [GMX1778] as the compound, how does the “selectivity index (SI = CC50/IC50)” value (rubella RA27/3 virus; A549 cells) read?
A: > 500

Q: And the inhibition at 1 µM (rubella RA27/3 virus; Rubella virus)?
A: > 60%

Q: What about the viability at 48 h, 1 µM [1] of the same compound?
A: > 60%

Q: And the pIC50 (A549 cells [11]; Homo sapiens, A549, read-out: IC50 of ATP content depletion (ATPLite))?
A: 7.70

Q: And the “activity against rubella in HBMEC” value (rubella virus [2])?
A: showed activity

Q: And the “activity against rubella in Jeg-3 cells” value (rubella virus [4])?
A: active

Q: For `Cc1ccc(S(=O)(=O)Cc2nc(-c3ccc(C(=O)NCc4cccnc4)cc3)oc2C)cc1` [STF-118804], which “inhibition of infection in primary screen” value (rubella RA27/3 virus; A549 cells, 1 µM, compared with vehicle alone) is on record?
A: > 60%

Q: And the “cell viability in primary screen” value (A549 cells [12])?
A: > 60%

Q: And the pIC50 (A549 cells [11]; A549 cells, read-out: IC50 of ATP content depletion (ATPLite))?
A: 8.00

Q: And the “activity against rubella in HBMEC” value (rubella virus [2])?
A: showed activity

Q: And the “activity against rubella in Jeg-3 cells” value (rubella virus [4])?
A: active

Q: Which “selectivity index (SI = CC50/IC50)” value (rubella RA27/3 virus; A549 cells) does the source give for `O=C(/C=C/c1cccnc1)NCCCCC1CCN(C(=O)c2ccccc2)CC1` [daporinad] here?
A: > 500

Q: And the inhibition at 1 µM (rubella RA27/3 virus; Rubella virus)?
A: > 60%

Q: And the viability at 48 h, 1 µM ([1]; A549 cells (infected with rubella virus RA27/3))?
A: > 60%

Q: And the pIC50 (A549 cells [11]; Homo sapiens, A549 cells, read-out: IC50 of ATP content depletion (ATPLite))?
A: 8.00

Q: And the “activity against rubella in HBMEC” value (rubella virus [2])?
A: showed activity

Q: What about the “activity against rubella in Jeg-3 cells” value (rubella virus [4]) of the same compound?
A: active
